Row | melting point | SMILES
1 | 179 to 181 °C (dec.) | O=C(O)c1ccc(OC2CCOCC2)cc1O [Compound 4-1, 2-hydroxy-4-(tetrahydro-pyran-4-yloxy)-benzoic acid]
2 | 154 °C | CC(=O)Nc1ccc(CNc2ccc(C(=O)O)c(O)c2)cc1 [Compound 6-3, 4-(4-Acetylamino-benzylamino)-2-hydroxy-benzoic acid]
3 | 229 °C (dec.) | O=C(O)c1ccc(OCc2ccc(-n3cncn3)cc2)cc1O [Compound 1-2, 2-Hydroxy-4-(4-[1,2,4]triazol-1-yl-benzyloxy)-benzoic acid]
4 | 170 to 175 °C (dec.) | O=C(O)c1ccc(OCc2cccc(-c3ccc4c(c3)OCCO4)c2)cc1O [Compound 3-36, 4-[3-(2,3-Dihydro-benzo[1,4]dioxin-6-yl)-benzyloxy]-2-hydroxy-benzoic acid]
5 | 142 to 146 °C | CCCCCCCCOc1ccc(-c2nnn[nH]2)c(O)c1 [Compound 12-6, 5-Octyloxy-2-(1H-tetrazol-5-yl)-phenol]
6 | 191 to 197 °C | O=C(O)c1ccc(OCc2cccc(Br)c2)cc1O [Compound 1-23, 4-(3-Bromo-benzyloxy)-2-hydroxy-benzoic acid]
7 | 193 to 196 °C (dec.) | O=C(O)c1ccc(OCc2cccc(-c3ccc4[nH]ccc4c3)c2)cc1O [Compound 3-34, 2-Hydroxy-4-[3-(1H-indol-5-yl)-benzyloxy]-benzoic acid]
8 | 197 to 200 °C (dec.) | COc1ccncc1-c1ccc(COc2ccc(C(=O)O)c(O)c2)cc1 [Compound 3-5, 2-Hydroxy-4-[4-(4-methoxy-pyridin-3-yl)-benzyloxy]-benzoic acid]
9 | 244 to 248 °C (dec.) | CC(=O)c1ccc(-c2ccc(COc3ccc(C(=O)O)c(O)c3)cc2)s1 [Compound 3-13, 4-[4-(5-Acetyl-thiophen-2-yl)-benzyloxy]-2-hydroxy-benzoic acid]
10 | 114 to 116 °C | CCCCCCCCOc1ccc(NC(=O)C(F)(F)F)c(O)c1 [Compound 9-1, 2,2,2-trifluoro-N-(2-hydroxy-4-octyloxy-phenyl)-acetamide]
11 | 215 to 220 °C (dec.) | CC(=O)c1cccc(-c2ccc(COc3ccc(C(=O)O)c(O)c3)cc2)c1 [Compound 3-6, 4-(3′-Acetyl-biphenyl-4-ylmethoxy)-2-hydroxy-benzoic acid]
12 | 220 °C (dec.) | N#Cc1ccccc1-c1ccc(COc2ccc(C(=O)O)c(O)c2)cc1 [Compound 1-17, 4-(2′-Cyano-biphenyl-4-ylmethoxy)-2-hydroxy-benzoic acid]
13 | 110 to 112 °C | COCCOCCOc1ccc(C(=O)O)c(O)c1 [Compound 1-4, 2-Hydroxy-4-[2-(2-methoxy-ethoxy]-ethoxy]-benzoic acid]
14 | 69 to 71 °C | CCCCCCCCOc1ccc(C#N)c(O)c1 [Compound 12-5, 2-Hydroxy-4-octyloxy-benzonitrile]
15 | 196 to 204 °C (dec.) | CN(C)S(=O)(=O)c1ccc(-c2cccc(COc3ccc(C(=O)O)c(O)c3)c2)cc1 [Compound 3-39, 4-(4′-Dimethylsulfamoyl-biphenyl-3-ylmethoxy)-2-hydroxy-benzoic acid]
16 | 188 to 193 °C (dec.) | O=C(O)c1ccc(OCc2cccc(-c3cccc([N+](=O)[O-])c3)c2)cc1O [Compound 3-23, 2-Hydroxy-4-(3′-nitro-biphenyl-3-ylmethoxy)-benzoic acid]
17 | 190 °C (dec.) | O=C(O)c1ccc(Nc2ccccc2[N+](=O)[O-])cc1O [Compound 8-12, 2-Hydroxy-4-(2-nitro-phenylamino)-benzoic acid]
18 | 222 to 226 °C (dec.) | O=C(O)c1ccc(OCc2ccc(-c3ccc4c(c3)OCO4)cc2)cc1O [Compound 3-14, 4-[3′,4′-(Methylenedioxy)-biphenyl-4-ylmethoxy]-2-hydroxy-benzoic acid]
19 | 209 to 212 °C (dec.) | O=C(O)c1ccc(OCc2ccc(-c3cccc(O)c3)cc2)cc1O [Compound 3-8, 2-Hydroxy-4-(3′-hydroxy-biphenyl-4-ylmethoxy)-benzoic acid]

From patent US7741352B2, “KCNQ channel modulating compounds and their pharmaceutical use” (Neurosearch A/S, priority 2003, dated 2010)
